Reference: patent US6544727B1, “Methods and devices for the removal of psoralens from blood products” (Cerus Corporation, priority 1995, dated 2003)
Like-named read-outs stand apart in the source and are kept apart here. Each block holds one compound with its values, some of them ahead of it.

Columns and labels:
[1] = HPLC retention time as rough estimate of hydrophobicity; format: physicochemical; settings: C-18 reversed phase, methanol/KH2PO4 gradient
Protocol: Adsorption data were then obtained by HPLC analysis on the test and control samples. Specifically, a 200 μl sample volume of PC was removed from each tube following the incubation period (special care being taken to ensure that no adsorbent particles were removed with the test samples). […] The addition of methanol lyses platelets and precipitates plasma proteins so that psoralen contained within the platelets is not excluded by the assay.
Since each of the psoralens were analyzed using the same type of BPLC assay, one can use the psoralens' relative retention times to rank them according to increasing hydrophobicity. […] Strong interactions with cells or plasma proteins could compete with adsorption, thereby interfering with resin binding.

[2] = Adsorption capacity of Amberlite adsorbents for Psoralens A, B and C from PC (Table V); format: physicochemical; settings: batch adsorption
Protocol: Stock solutions (15 mM) of each psoralen ([…], and C) were prepared in DMSO. […] Thereafter, control samples and test samples were prepared for HPLC analysis. Test samples were prepared by adding a 3.0 mL aliquot of each dilution to a 5 mL polypropylene tube containing 0.1 g of adsorbent; control samples were prepared in an analogous manner with the exception that the adsorbent was omitted. The test and control samples were then incubated for 6 hours at 22° C. by rotating gently on a mixer (Barnstead, Thermolyne Model 400110). […] Adsorption data were then obtained by HPLC analysis on the test and control samples. Specifically, a 200 μl sample volume of PC was removed from each tube following the incubation period (special care being taken to ensure that no adsorbent particles were removed with the test samples). […] The addition of methanol lyses platelets and precipitates plasma proteins so that psoralen contained within the platelets is not excluded by the assay. […] The slopes of the calibration curves were determined by linear least square method (y-intercept constrained to zero). […] The amount (μmoles) of psoralen which the adsorbent had removed from the PC was calculated [V(Co-Cf)]. […] As previously discussed, the slope of the adsorbent isotherm, K (L/g), is termed the adsorption constant and can be determined by a linear regression of the adsorption data.

p-selectin (GMP140) = experiment: GMP-140 (p-selectin) expression on platelets, flow cytometry with CD62; format: cell-based, human; settings: 100 μM compound, 5 Joules/cm^2, 5 days storage; FIGS. 21C-24C
Protocol: To measure the effects of the present compounds and methods of decontamination on platelet function using these four indicators, four samples were prepared for each compound tested, two control samples and two containing compound. Three units of human platelets were obtained from the Sacramento Blood Center, Sacramento, Calif. These were each transferred under sterile conditions to 50 ml centrifuge tubes, then aliquots of each unit were transferred into a second set of 50 ml sterile centrifuge tubes. To each centrifuge tube containing platelet concentrate (PC), an aliquot of compound stock was added to reach a final concentration of 100 μM of compound. […] The samples were pipetted gently up and down to mix. Then aliquots (either 3 ml or 8 ml) of each sample was transferred to two sterile Teflon™ Medi-bags™ (American Fluoroseal Co., Silver Springs, Md.) (presently owned by The West Company, Lionville, Pa.). Samples were treated in one of two different sized bags, having either 3 ml or 8 ml capacity. […] For each compound tested, two control samples without compound were prepared by again removing aliquots of platelet concentrate (17 ml if using an 8 ml bag, […] if using a 3 ml bag) from the same one of the first set of 50 ml centrifuge tubes from which the compound sample was drawn, and dividing into Medibags, as before. One of each pair of Medibags containing a compound, and one of each pair of control Medibags, were illuminated for 5 Joules/cm^2 on the device described in Example 1, above. Then all experimental and control Medibags were placed on a platelet shaker for storage for 5 days. The same experiments were repeated several times to obtain more statistically meaningful data, as represented by “n”, the number of data points represented, in the graphs of FIGS. 21-24, discussed below.

HIV-1 = settings: 1 minute irradiation, starting titer approximately 5.4 logs (Table 11)
platelets = experiment: Platelet count, Sysmex cell counter; format: cell-based, human; settings: 100 μM compound, 5 Joules/cm^2, Day 5; FIGS. 21A-24A
Protocol: Samples were diluted 1:3 in blood bank saline.

mouse reticulocytes = settings: increased dose levels in male Balb/c mice
Protocol: Male Balb/c mice were then injected with 0.1 ml of a compound solution via the tail vein. At least 3 mice were injected per dose level. Saline only was used as a negative control. For a positive control, cyclophosphamide (cycloPP) was administered at a dose of 30 mg/kg. In the experimental group, the injections were repeated once per day for four days. In the positive control group, the sample was administered only once, on day three. On day 5, several microliters of blood were withdrawn from each subject and smeared on a glass slide. Cells were fixed in absolute methanol and stored in a slide rack.
For analysis, cells were stained with acridine orange and visualized under a fluorescence microscope by counting: (i) the number of reticulocytes per 5000 erythrocytes; and (ii) the number of micronucleated reticulocytes per 1000 reticulocytes. Reticulocytes were distinguished by their red fluorescence due to the presence of RNA. Micronuclei were distinguished by their green fluorescence due to the presence of DNA. The percentage of reticulocytes (%PCE) was then calculated. A decrease in the frequency of […] in the percentage of reticulocytes, is an indication of bone marrow toxicity. The percentage of reticulocytes with micronuclei (%PCE with MN) was also calculated. An increase in %PCE with MN is a measure of clastogenicity.
After initial results were determined, the experiment was repeated using increased dose levels, until: (i) Micronucleus formation was seen; or (ii) Bone marrow toxicity was observed; or (iii) The lethal dose was reached; or (iv) A dose of 5 g/kg was administered.

R17 bacteriophage [3] = experiment: R17 bacteriophage inactivation at constant concentration, varying doses of UV light; format: cell-based; settings: 1.0-3.0 J/cm^2, FIGS. 11-17
Protocol: Compounds of the present invention were also tested at a constant concentration for varying doses of UV light. Three sets of 1.5 mL tubes were prepared containing 0.6mL aliquots of R17 in DMEM (prepared as described above). The compound tested was added at the desired concentration and the samples were vortexed. The samples were then irradiated at intervals of 1.0 J/cm^2, until 3.0 J/cm^2 was reached. Between each 1.0 J/cm^2 interval, 100 μL was removed from each sample and placed in the first corresponding dilution tube, then five sequential dilutions were performed for each compound tested, at all 3 irradiation doses, as described above in this example.
Then 50 μL of Hfr 3000 bacteria was added to each tube, 3 mL of top agar was added and the tube contents were vortexed The contents of each tube was poured into its own LB plate and the plates were incubated overnight at 37° C. Plaques were counted by visual inspection the following morning.

R17 bacteriophage [4] = experiment: R17 bacteriophage inactivation assay, varying compound concentration; format: cell-based; settings: 32 μM; starting titer approx. 7.5 logs; 1 minute irradiation
Protocol: An r-17 bacteriophage assay was used in this example to predict pathogen inactivation efficiency and to determine nucleic acid binding of the photoreactive binding compounds of the present invention. In the r-17 assay, the bacteriophage was placed in a solution with each compound tested and was then irradiated. The ability of the phage to subsequently infect bacteria and inhibit their growth was measured. The bacteriophage was selected for its relatively accessible nucleic acid such that the culture growth inhibition would accurately reflect nucleic acid damage by the test compounds. The bacteriophage assay for nucleic acid binding to test compounds offers a safe and inexpensive procedure to identify compounds likely to display efficient pathogen inactivation.
The R17 was grown up in Hfr 3000 bacteria, approximate titer 5×10^11. (R17 and Hfr 3000 were obtained from American Tissue Culture Collection (ATCC), Washington, D.C.) The R17 phage stock was added to a solution of 15% fetal bovine serum in Dulbecco's Modified Eagles Medium (DMEM) to a final phage concentration of 10^9/mL. An aliquot (0.5 mL) was transferred to a 1.5 mL snap-top polyethylene tube. An aliquot (0.004-0.040 mL) of the test compound stock solution prepared in water, ethanol or dimethylsulfoxide at 0.80-8.0 mM was added to the tube. Compounds were tested at concentrations between 4 μM and 320 μM. […] The tubes were placed in a light device as described in EXAMPLE 1 and irradiated for between 1 and 10 minutes. Sterile 13 mL dilution tubes were prepared; each test compound required one tube with 0.4 mL of Luria broth (LB) and five tubes containing 0.5 mL of LB broth. To make the dilutions, a 0.100 mL aliquot of the irradiated solution of phage and test compound was added to the first dilution tube of 0.4 mL of media then 0.020 mL of this solution was added to the second tube of 0.5 mL medium (1:25). The second solution was then diluted serially (1:25) into the remaining tubes. To each diluted sample was added 0.050 mL of Hfr 3000 bacteria cultured overnight and 3 mL of molten LB top agar and the mixed materials were poured onto LB broth plates. After the top agar hardened, the plates were incubated at 37° C. overnight. The plaque forming units were then counted the following morning and the titer of the phage remaining after phototreatment was calculated based on the dilution factors.
The following controls were run: the “phage only” in which phage was not treated with test compound and not irradiated (listed as “starting titer” in the tables below); the “UV only” in which the phage was irradiated in the absence of test compound; and the “dark” control in which the phage/test compound solution was not irradiated before it was diluted and plated.

Pseudomonas = experiment: Bacterial inactivation, colony forming units; format: cell-based; settings: 16 μM; 5 J/cm^2 irradiation; starting titer 6.5 logs
Protocol: The bacteria, a strain of Pseudomonas, was inoculated into LB with a sterile loop and grown overnight in a shaker at 37° C. Based on the approximation that one OD at 610 mn is equivalent to 5×10^8 colony forming units (cfu)/mL, a 1:10 dilution of the culture was measured on a spectrophotometer, (manufactured by Shimatsu). The bacterial culture was added to a solution of 15% fetal bovine serum in DMEM to a final bacteria concentration of approximately 10^6/mL. An aliquot (0.8 mL) was transferred to a 1.5 mL snap-top polyethylene tube. An aliquot (0.004-0.040 mL) of the test compound stock solution prepared in water, ethanol or dimethylsulfoxide at 0.80-8.0 mM was added to the tube. Compounds were tested at a concentration of 16 μM. The tubes were placed in a light device as described in EXAMPLE 1 and irradiated with 1.3 J/cm^2, 1.2 J/cm^2, and finally 2.5 J/cm^2, for a total of 5 J/cm^2. 150 μL were removed for testing after each pulse period. Sterile 13 mL dilution tubes were prepared; each test compound required one tube with 0.4 mL of LB broth and four tubes containing 0.5 mL of LB broth. […] The colony forming units were then counted the following morning and the titer of the phage remaining after phototreatment was calculated based on the dilution factors. […]

[5] = system: Salmonella typhimurium tester strains; experiment: Ames Salmonella dark mutagenicity test, overall assessment; format: cell-based; settings: two-fold or greater increase in revertants above background and dose dependence
Protocol: A brief description for each procedure is given here. […] TA97a, TA98, TA1537 and TA1538 are frameshift tester strains. TA100 and TA102 are base-substitution tester strains.
This served as the background controls.
For all experiments, the pre-incubation procedure was used.

- HPLC retention time (rough estimate of hydrophobicity) [1]: 7.8 min
SMILES: CC[N+](CC)(CC)Cc1c(C)oc2c(C)c3oc(=O)cc(C)c3cc12 [Psoralen A, 4′-(triethylamino) methyl-4,5′,8-trimethylpsoralen]

- ease of removal from PC (in words) [2]: most easily removed from PC
- HPLC retention time (rough estimate of hydrophobicity) [1]: 12.0 min
SMILES: CCN(CC)CCCOc1c2occc2c(Br)c2ccc(=O)oc12 [Psoralen C, 5-bromo-8-(diethylaminopropyloxy)-psoralen]

SMILES: Cc1cc(=O)oc2c(C)c3oc(CNCCCCN)c(C)c3cc12 [Compound 17, 5′-(6-amino-2-aza)hexyl-4,4′,8-trimethylpsoralen]
- GMP-140 expression, treated sample (PCD) against day 5 untreated control (in words) (p-selectin (GMP140)): little or no difference
- HIV Log Kill (HIV-1; 16 μM): 1.2 log
- HIV Log Kill (HIV-1; 32 μM): 2.9 log
- HIV Log Kill (HIV-1; 64 μM): 3.4 log
- platelet count, treated against controls (in words) (platelets): higher platelet count than samples treated with light alone
- bone marrow toxicity and micronucleus formation on dose escalation (in words) (mouse reticulocytes): the acutely lethal dose was reached before there were any signs of bone marrow toxicity or micronucleus formation
- R17 inactivation efficiency compared with AMT (in words) (R17 bacteriophage [3]): more efficient at inactivating R17 than was AMT

- HPLC retention time (rough estimate of hydrophobicity) [1]: 20.0 min
SMILES: COc1c2occc2c(Br)c2ccc(=O)oc12 [Psoralen B, 5-bromo-8-methoxypsoralen]

SMILES: COc1c2occc2cc2ccc(=O)oc12 [Compound 8-MOP, 8-Methoxypsoralen, reference compound]
- R17 log kill (32 μM) (R17 bacteriophage [4]): 0 log
- log kill of Pseudomonas (Pseudomonas): 1.9 logs
- mutagenic response in the Ames assay (in words) [5]: weak base-substitution mutagen in TA102 at 500 μg/plate
